Measurements taken from patent US11566003B2, “Isoquinolines as inhibitors of HPK1” (priority 2017, dated 2023).

Legend:
HPK1 [1] = molecular target: HPK1 (Homo sapiens (Human), UniProt Q92918); assay: biochemical; format: binding
HPK1 [2] = molecular target: HPK1 (Homo sapiens (Human), UniProt Q92918, S171E/T165E); assay: biochemical

SMILES | Ki (HPK1 [1]) [nM] | Ki (HPK1 [2]) [nM]
Cc1c(NC(C)C)cncc1-c1cc(N)c2cnc(NC(=O)[C@@H]3C[C@H]3C#N)cc2c1 (racemic) [Compound 186, (±)-trans-N-(8-amino-6-[4-methyl-5-[(propan-2-yl)amino]pyridin-3-yl]isoquinolin-3-yl)-2-cyanocyclopropane-1-carboxamide] | 6.96 | 
Cc1c(N)cncc1-c1cc2cc(NC(=O)[C@@H]3C[C@H]3CC#N)ncc2c(N)c1Cl (racemic) [Compound 209, (±)-trans-N-(8-amino-6-(5-amino-4-methylpyridin-3-yl)-7-chloroisoquinolin-3-yl)-2-(cyanomethyl)cyclopropanecarboxamide] | 0.0405 | 
C[C@H]1Cc2c(cncc2-c2cc(N)c3cnc(NC(=O)C4CC4)cc3c2)N1 [Compound 189, (S)—N-(8-amino-6-(2-methyl-2,3-dihydro-1H-pyrrolo[2,3-c]pyridin-4-yl)isoquinolin-3-yl)cyclopropanecarboxamide] | 5.44 | 
